From US12371428B2 (Exelixis, Inc., priority 2019, dated 2025)
pIC50: −log10 of the molar value.

Tests used:
[1] = molecular target: Mer (phospho-Mer, MERTK-transfected 293A cells) (Homo sapiens (Human), UniProt Q12866); assay: Mer autophosphorylation ELISA in transient transfected 293A cells (Example H); type: cell-based; settings: cellular activity; Mer autophosphorylation ELISA in transient transfected 293A cells
Outline: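 Inhibition of cellular Mer autophosphorylation is determined in 293A cells transiently expressing human MERTK after 1 h compound exposure (8 concentrations, serum-free, 0.3% DMSO). Phospho-Mer in clarified lysates is measured by ELISA, with DMSO and reference-inhibitor wells defining the 100% and 0% activity limits.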

[2] = molecular target: Human Mer (residues R557-E882 with H628Q and R794A) (Homo sapiens, UniProt Q12866); assay: Human Mer kinase assay, 33P-phosphoryl transfer radiometric (Example C-1, KinaseProfiler); type: biochemical; settings: protocol of Example C-1 (compounds 21-27, 41-47, 99, 104)
Human Mer (residues R557-E882 with H628Q and R794A), sequence (Q12866 21-999 limits assumed, stated change not applied): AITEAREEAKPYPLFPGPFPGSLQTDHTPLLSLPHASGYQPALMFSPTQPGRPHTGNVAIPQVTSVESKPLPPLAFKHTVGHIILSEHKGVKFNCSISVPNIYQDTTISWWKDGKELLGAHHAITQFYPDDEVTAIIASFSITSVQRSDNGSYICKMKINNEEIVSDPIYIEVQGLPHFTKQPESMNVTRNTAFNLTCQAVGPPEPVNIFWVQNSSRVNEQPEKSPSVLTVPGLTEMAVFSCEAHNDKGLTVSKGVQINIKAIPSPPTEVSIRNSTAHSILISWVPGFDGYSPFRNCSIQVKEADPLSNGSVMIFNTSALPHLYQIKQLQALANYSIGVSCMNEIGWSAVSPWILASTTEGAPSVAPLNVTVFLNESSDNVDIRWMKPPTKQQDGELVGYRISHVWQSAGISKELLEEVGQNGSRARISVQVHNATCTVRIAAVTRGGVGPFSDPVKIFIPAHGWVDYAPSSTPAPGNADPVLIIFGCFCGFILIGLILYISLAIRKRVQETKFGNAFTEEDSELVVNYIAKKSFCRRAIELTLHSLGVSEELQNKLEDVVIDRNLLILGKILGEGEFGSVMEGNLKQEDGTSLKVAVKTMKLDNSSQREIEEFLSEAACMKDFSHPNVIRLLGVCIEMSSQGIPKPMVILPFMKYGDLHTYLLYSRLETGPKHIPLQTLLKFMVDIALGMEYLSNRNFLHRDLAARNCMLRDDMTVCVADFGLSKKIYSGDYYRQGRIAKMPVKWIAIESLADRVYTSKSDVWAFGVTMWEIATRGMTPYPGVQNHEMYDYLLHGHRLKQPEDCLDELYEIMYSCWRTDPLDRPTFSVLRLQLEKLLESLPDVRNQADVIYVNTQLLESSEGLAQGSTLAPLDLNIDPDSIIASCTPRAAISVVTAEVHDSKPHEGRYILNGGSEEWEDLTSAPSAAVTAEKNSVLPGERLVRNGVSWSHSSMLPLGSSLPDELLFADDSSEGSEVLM
Description: (§1) Kinase activity and compound inhibition were investigated using the ^33P-Phosphoryl transfer radiometric kinase assay, performed using the KinaseProfiler™ service of Eurofins Pharma Discovery Services UK Limited. Dose-response experiments were performed using nine compound concentrations in a 96-well microtiter plate. For each assay, all compounds were prepared to a 50× final assay concentration (50 μM) in 100% DMSO, then diluted in a half-log series, with the final top concentration at 1 μM. This working stock of the compound was added to the assay well as the first component in the reaction, followed by the remaining components as detailed in the following assay protocols below. The positive control wells (100% kinase activity) contain all components of the reaction including 2% DMSO (control for solvent effects), except the compound of interest. Blank wells contain all components of the reaction, with the reference inhibitor, staurosporine. This reference compound was used to abolish kinase activity and generated the 0% kinase activity base-line. IC50 values were calculated by nonlinear regression analysis using the sigmoidal dose-response (variable slope) curve fit on XLFit version 5.3 (ID Business Solutions).
Example C-1: Human Mer (residues R557-E882 with H628Q and R794A, 0.7 nM) was incubated with 8 mM MOPS pH 7.0, 0.2 mM EDTA, 30 mM NaCl, 250 μM […] (SEQ ID NO:2), 10 mM magnesium acetate, and 10 μM [γ-^33P-ATP]. The reaction was initiated by the addition of the Mg/ATP mix. After incubation for 40 minutes at room temperature, the reaction was stopped by the addition of phosphoric acid to a concentration of 0.5%. A reaction aliquot of 10 μL was then spotted onto a P30 filtermat and washed four times for 4 minutes in 0.425% phosphoric acid and once in methanol prior to drying and scintillation counting. Incorporated ^33P was measured using the Wallac Microbeta scintillation counter (Perkin Elmer).

[3] = molecular target: Human KDR (residues K790-V1356) (Homo sapiens (Human), UniProt P35968); assay: Human KDR kinase assay, 33P-phosphoryl transfer radiometric (Example B-1, KinaseProfiler); type: biochemical; settings: protocol of Example B-1 (compounds 21-27, 41-47, 99, 104)
Human KDR (residues K790-V1356), sequence (P35968 790-1356): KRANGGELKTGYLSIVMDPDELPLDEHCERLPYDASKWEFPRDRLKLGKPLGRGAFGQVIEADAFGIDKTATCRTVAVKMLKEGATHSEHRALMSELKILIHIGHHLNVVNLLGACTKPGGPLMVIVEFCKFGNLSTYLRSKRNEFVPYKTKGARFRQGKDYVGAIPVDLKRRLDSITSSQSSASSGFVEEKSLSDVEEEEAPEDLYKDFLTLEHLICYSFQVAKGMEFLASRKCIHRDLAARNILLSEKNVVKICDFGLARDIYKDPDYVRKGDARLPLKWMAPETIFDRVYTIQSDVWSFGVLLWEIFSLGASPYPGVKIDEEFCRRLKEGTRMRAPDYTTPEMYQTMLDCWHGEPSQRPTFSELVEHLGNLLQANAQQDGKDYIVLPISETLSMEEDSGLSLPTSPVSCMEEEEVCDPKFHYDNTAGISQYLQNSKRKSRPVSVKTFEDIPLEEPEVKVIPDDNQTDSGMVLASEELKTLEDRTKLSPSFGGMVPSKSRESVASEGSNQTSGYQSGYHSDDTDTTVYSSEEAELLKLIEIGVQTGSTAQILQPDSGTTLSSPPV
Description: as §1
Example B-1: Human KDR (residues K790-V1356, 55 nM) was incubated with 8 mM MOPS pH 7.0, 0.2 mM EDTA, 0.33 mg/mL myelin basic protein, 10 mM magnesium acetate, and 10 μM [γ-^33P-ATP]. The reaction was initiated by the addition of the Mg/ATP mix. After incubation for 40 minutes at room temperature, the reaction was stopped by the addition of phosphoric acid to a concentration of 0.5%. A reaction aliquot of 10 μL was then spotted onto a P30 filtermat and washed four times for 4 minutes in 0.425% phosphoric acid and once in methanol prior to drying and scintillation counting. Incorporated ^33P was measured using the Wallac Microbeta scintillation counter (Perkin Elmer).

[4] = molecular target: Human KDR (residues 790-1356) (Homo sapiens (Human), UniProt P35968); assay: Human KDR kinase assay, HTRF KinEase (Example B-2); type: biochemical
Human KDR (residues 790-1356), sequence (P35968 790-1356): as above
Outline: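 Human KDR residues 790-1356 (0.1 ng/well) in buffer with 5 mM MgCl2, 1 mM MnCl2, 1 mM DTT, biotinylated peptide substrate, ATP at Km (4.0 μM), 3% DMSO, 10 compound concentrations; 40 min, room temperature. EDTA stop, streptavidin-XL665/Eu-TK antibody HTRF read 665/620 nm; 4-parameter IC50.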

Mer (phospho-Mer, MERTK-transfected 293A cells), sequence (Q12866 21-999): as the sequence (Q12866 21-999 limits assumed, stated change not applied) above

pIC50 [1] | pIC50 [2] | pIC50 [3] | pIC50 ([4]; protocol of Example B-2) | pIC50 ([4]; protocol of Example B-2 (other compounds)) | Compound
> 7.00 | > 7.00 | > 7.00 | – | – | COc1cc2nccc(Oc3ccc(NC(=O)c4cn(C)cc(-c5ccc(F)cc5)c4=O)cc3F)c2nc1OC [Compound 45, N-[4-[(6,7-Dimethoxy-1,5-naphthyridin-4-yl)oxy]-3-fluorophenyl]-5-(4-fluorophenyl)-1-methyl-4-oxopyridine-3-carboxamide]
> 7.00 | > 7.00 | > 7.00 | – | – | COc1cc2nccc(Oc3ccc(NC(=O)c4cn(C5CCCC5)cc(-c5ccc(F)cc5)c4=O)cc3F)c2nc1OC [Compound 46, 1-Cyclopentyl-N-[4-[(6,7-dimethoxy-1,5-naphthyridin-4-yl)oxy]-3-fluorophenyl]-5-(4-fluorophenyl)-4-oxopyridine-3-carboxamide]
> 7.00 | > 7.00 | > 7.00 | – | – | COc1cc2nccc(Oc3ccc(NC(=O)c4cn(C5CCCC5)c(C)c(-c5ccc(F)c(Cl)c5)c4=O)cc3F)c2nc1OC [Compound 27, 5-(3-Chloro-4-fluorophenyl)-1-cyclopentyl-N-[4-[(6,7-dimethoxy-1,5-naphthyridin-4-yl)oxy]-3-fluorophenyl]-6-methyl-4-oxopyridine-3-carboxamide]
> 7.00 | > 7.00 | > 7.00 | – | – | COc1cc2nccc(Oc3ccc(NC(=O)c4cn(C(C)C)c(C)c(-c5ccc(F)cc5)c4=O)cc3F)c2nc1OC [Compound 21, N-[4-[(6,7-Dimethoxy-1,5-naphthyridin-4-yl)oxy]-3-fluorophenyl]-5-(4-fluorophenyl)-6-methyl-4-oxo-1-propan-2-ylpyridine-3-carboxamide]
> 7.00 | > 7.00 | > 7.00 | – | – | COc1cc2nccc(Oc3ccc(NC(=O)c4cn(C(C)C)c(C)c(-c5ccc(Cl)c(Cl)c5)c4=O)cc3F)c2nc1OC [Compound 25, 5-(3,4-Dichlorophenyl)-N-[4-[(6,7-dimethoxy-1,5-naphthyridin-4-yl)oxy]-3-fluorophenyl]-6-methyl-4-oxo-1-propan-2-ylpyridine-3-carboxamide]
> 7.00 | > 7.00 | > 7.00 | – | – | COc1cc2nccc(Oc3ccc(NC(=O)c4cn(C5CCCC5)c(C)c(-c5ccc(F)cc5)c4=O)cc3F)c2nc1OC [Compound 26]
> 7.00 | > 7.00 | > 7.00 | – | – | COc1cc2nccc(Oc3ccc(NC(=O)c4cn(C(C)C)cc(-c5ccc(F)cc5)c4=O)cc3F)c2cc1OC [Compound 43, N-[4-(6,7-Dimethoxyquinolin-4-yl)oxy-3-fluorophenyl]-5-(4-fluorophenyl)-4-oxo-1-propan-2-ylpyridine-3-carboxamide]
> 7.00 | – | – | > 7.00 | – | C=C(C)c1cnc2c(Oc3ccc(NC(=O)c4c(C)nc(C)c(-c5ccc(F)cc5)c4O)cc3F)ccnc2c1 [Compound 451, 5-(4-fluorophenyl)-N-[3-fluoro-4-[(7-prop-1-en-2-yl-1,5-naphthyridin-4-yl)oxy]phenyl]-4-hydroxy-2,6-dimethylpyridine-3-carboxamide]
> 7.00 | – | – | > 7.00 | – | COCCOc1cc2nccc(Oc3ccc(NC(=O)c4c(COC)nc(C)c(-c5ccc(F)cc5)c4O)cc3F)c2nc1OC [Compound 482, N-[3-fluoro-4-[[6-methoxy-7-(2-methoxyethoxy)-1,5-naphthyridin-4-yl]oxy]phenyl]-5-(4-fluorophenyl)-4-hydroxy-2-(methoxymethyl)-6-methylpyridine-3-carboxamide]
> 7.00 | – | – | > 7.00 | – | COCCOc1cnc2c(Oc3ccc(NC(=O)c4ccc(C)n(-c5ccc(F)cc5)c4=O)cc3F)ccnc2c1 [Compound 552, N-[3-Fluoro-4-[[7-(2-methoxyethoxy)-1,5-naphthyridin-4-yl]oxy]phenyl]-1-(4-fluorophenyl)-6-methyl-2-oxopyridine-3-carboxamide]
> 7.00 | – | – | – | > 7.00 | COc1cc2nccc(Oc3ccc(NC(=O)c4ccc(C)n(-c5ccc(F)cc5)c4=O)cc3F)c2nc1OC [Compound 254, N-[4-[(6,7-Dimethoxy-1,5-naphthyridin-4-yl)oxy]-3-fluorophenyl]-1-(4-fluorophenyl)-6-methyl-2-oxopyridine-3-carboxamide]
> 7.00 | – | – | < 6.52 | – | COc1cc2nccc(Oc3ccc(NC(=O)c4c(C)n(C)c(C)c(-c5ccc(F)cc5)c4=O)cc3)c2nc1OC [Compound 523, N-[4-[(6,7-dimethoxy-1,5-naphthyridin-4-yl)oxy]phenyl]-5-(4-fluorophenyl)-1,2,6-trimethyl-4-oxopyridine-3-carboxamide]
> 7.00 | – | – | < 6.52 | – | COc1cc2nccc(Oc3ccc(NC(=O)c4cn(C)c(CF)c(-c5ccc(F)cc5C)c4=O)cc3F)c2nc1OC [Compound 556, N-[4-[(6,7-Dimethoxy-1,5-naphthyridin-4-yl)oxy]-3-fluorophenyl]-6-(fluoromethyl)-5-(4-fluoro-2-methylphenyl)-1-methyl-4-oxopyridine-3-carboxamide]
> 7.00 | – | – | < 6.52 | – | COCc1nc(C)c(-c2ccc(F)cc2C)c(O)c1C(=O)Nc1ccc(Oc2ccnc3ccc(OC)nc23)cc1 [Compound 516, 5-(4-fluoro-2-methylphenyl)-4-hydroxy-2-(methoxymethyl)-N-[4-[(6-methoxy-1,5-naphthyridin-4-yl)oxy]phenyl]-6-methylpyridine-3-carboxamide]
> 7.00 | – | – | 6.52 to 7.00 | – | Cc1ccc(C(=O)Nc2ccc(Oc3ccnc4cc(O)cnc34)c(F)c2)c(=O)n1-c1ccc(F)cc1 [Compound 551, N-[3-Fluoro-4-[(7-hydroxy-1,5-naphthyridin-4-yl)oxy]phenyl]-1-(4-fluorophenyl)-6-methyl-2-oxopyridine-3-carboxamide]
6.52 to 7.00 | – | – | < 6.52 | – | Cc1cc(F)ccc1-c1c(C)nc(C)c(C(=O)Nc2ccc(Oc3ccnc4cccnc34)c(F)c2)c1O [Compound 505, 5-(4-fluoro-2-methylphenyl)-N-[3-fluoro-4-(1,5-naphthyridin-4-yloxy)phenyl]-4-hydroxy-2,6-dimethylpyridine-3-carboxamide]
> 7.00 | – | – | < 6.52 | – | COc1cc2nccc(Oc3ccc(NC(=O)c4cn(C)c(CF)c(-c5ccc(F)cc5)c4=O)cc3)c2nc1OC [Compound 560, N-[4-[(6,7-Dimethoxy-1,5-naphthyridin-4-yl)oxy]phenyl]-6-(fluoromethyl)-5-(4-fluorophenyl)-1-methyl-4-oxopyridine-3-carboxamide]
> 7.00 | – | – | < 6.52 | – | COc1cnc2c(Oc3ccc(NC(=O)c4ccnn(-c5ccc(F)cc5C)c4=O)cc3)ccnc2c1 [Compound 530, 2-(4-fluoro-2-methylphenyl)-N-[4-[(7-methoxy-1,5-naphthyridin-4-yl)oxy]phenyl]-3-oxopyridazine-4-carboxamide]
> 7.00 | – | – | 6.52 to 7.00 | – | COc1cc2nccc(Oc3ccc(NC(=O)c4cnc(SC(C)C)n(-c5ccc(F)cc5)c4=O)cc3)c2cc1OC [Compound 539, N-[4-(6,7-dimethoxyquinolin-4-yl)oxyphenyl]-1-(4-fluorophenyl)-6-oxo-2-propan-2-ylsulfanylpyrimidine-5-carboxamide]
> 7.00 | – | – | > 7.00 | – | Cc1nc(C)c(-c2ccc(F)cc2)c(O)c1C(=O)Nc1ccc(Oc2ccnc3cc(O)cnc23)c(F)c1 [Compound 554, N-[3-Fluoro-4-[(7-hydroxy-1,5-naphthyridin-4-yl)oxy]phenyl]-5-(4-fluorophenyl)-4-hydroxy-2,6-dimethylpyridine-3-carboxamide]
